Experimental findings from patent publication US9273040B2 (Merck Sharp & Dohme Corp., priority 2011, dated 2016) are described below.

Structures are written as SMILES. Where two headings read alike, the source gives them in different places.

Assay [1] has as its target T1, human Nav1.5 channels stably expressed in HEK 293 cells (Homo sapiens, UniProt Q14524).
T1 construct: expressed in transfected cells
The assay can be described thus: PatchXpress 7000 automated patch-clamp, sodium current. Type of assay: cell-based. The settings on record: selectivity over Nav1.5. The method, boiled down:
(§1)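 IC50 values came from Hill-equation fits of rundown-corrected inhibition. PatchXpress recordings at 22° C held cells 20 mV negative to V0.5 inact and applied 10 Hz trains of 30 ms steps to −20 mV (Nav1.7) or an 8000 ms prepulse 7 mV positive to V0.5 inact. […]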

For assay [2], the target named is T2, human Nav1.7 channels stably expressed in HEK 293 cells (Homo sapiens, UniProt Q15858).
T2 construct: expressed in transfected cells
The description is as above. Type of assay: cell-based. The settings on record: 22° C. The method, boiled down: as §1

Where [3] appears, read: read-out: potency for the Nav 1.7 sodium ion channel (as measured by PatchXpress).

T1 sequence (Q14524 whole entry): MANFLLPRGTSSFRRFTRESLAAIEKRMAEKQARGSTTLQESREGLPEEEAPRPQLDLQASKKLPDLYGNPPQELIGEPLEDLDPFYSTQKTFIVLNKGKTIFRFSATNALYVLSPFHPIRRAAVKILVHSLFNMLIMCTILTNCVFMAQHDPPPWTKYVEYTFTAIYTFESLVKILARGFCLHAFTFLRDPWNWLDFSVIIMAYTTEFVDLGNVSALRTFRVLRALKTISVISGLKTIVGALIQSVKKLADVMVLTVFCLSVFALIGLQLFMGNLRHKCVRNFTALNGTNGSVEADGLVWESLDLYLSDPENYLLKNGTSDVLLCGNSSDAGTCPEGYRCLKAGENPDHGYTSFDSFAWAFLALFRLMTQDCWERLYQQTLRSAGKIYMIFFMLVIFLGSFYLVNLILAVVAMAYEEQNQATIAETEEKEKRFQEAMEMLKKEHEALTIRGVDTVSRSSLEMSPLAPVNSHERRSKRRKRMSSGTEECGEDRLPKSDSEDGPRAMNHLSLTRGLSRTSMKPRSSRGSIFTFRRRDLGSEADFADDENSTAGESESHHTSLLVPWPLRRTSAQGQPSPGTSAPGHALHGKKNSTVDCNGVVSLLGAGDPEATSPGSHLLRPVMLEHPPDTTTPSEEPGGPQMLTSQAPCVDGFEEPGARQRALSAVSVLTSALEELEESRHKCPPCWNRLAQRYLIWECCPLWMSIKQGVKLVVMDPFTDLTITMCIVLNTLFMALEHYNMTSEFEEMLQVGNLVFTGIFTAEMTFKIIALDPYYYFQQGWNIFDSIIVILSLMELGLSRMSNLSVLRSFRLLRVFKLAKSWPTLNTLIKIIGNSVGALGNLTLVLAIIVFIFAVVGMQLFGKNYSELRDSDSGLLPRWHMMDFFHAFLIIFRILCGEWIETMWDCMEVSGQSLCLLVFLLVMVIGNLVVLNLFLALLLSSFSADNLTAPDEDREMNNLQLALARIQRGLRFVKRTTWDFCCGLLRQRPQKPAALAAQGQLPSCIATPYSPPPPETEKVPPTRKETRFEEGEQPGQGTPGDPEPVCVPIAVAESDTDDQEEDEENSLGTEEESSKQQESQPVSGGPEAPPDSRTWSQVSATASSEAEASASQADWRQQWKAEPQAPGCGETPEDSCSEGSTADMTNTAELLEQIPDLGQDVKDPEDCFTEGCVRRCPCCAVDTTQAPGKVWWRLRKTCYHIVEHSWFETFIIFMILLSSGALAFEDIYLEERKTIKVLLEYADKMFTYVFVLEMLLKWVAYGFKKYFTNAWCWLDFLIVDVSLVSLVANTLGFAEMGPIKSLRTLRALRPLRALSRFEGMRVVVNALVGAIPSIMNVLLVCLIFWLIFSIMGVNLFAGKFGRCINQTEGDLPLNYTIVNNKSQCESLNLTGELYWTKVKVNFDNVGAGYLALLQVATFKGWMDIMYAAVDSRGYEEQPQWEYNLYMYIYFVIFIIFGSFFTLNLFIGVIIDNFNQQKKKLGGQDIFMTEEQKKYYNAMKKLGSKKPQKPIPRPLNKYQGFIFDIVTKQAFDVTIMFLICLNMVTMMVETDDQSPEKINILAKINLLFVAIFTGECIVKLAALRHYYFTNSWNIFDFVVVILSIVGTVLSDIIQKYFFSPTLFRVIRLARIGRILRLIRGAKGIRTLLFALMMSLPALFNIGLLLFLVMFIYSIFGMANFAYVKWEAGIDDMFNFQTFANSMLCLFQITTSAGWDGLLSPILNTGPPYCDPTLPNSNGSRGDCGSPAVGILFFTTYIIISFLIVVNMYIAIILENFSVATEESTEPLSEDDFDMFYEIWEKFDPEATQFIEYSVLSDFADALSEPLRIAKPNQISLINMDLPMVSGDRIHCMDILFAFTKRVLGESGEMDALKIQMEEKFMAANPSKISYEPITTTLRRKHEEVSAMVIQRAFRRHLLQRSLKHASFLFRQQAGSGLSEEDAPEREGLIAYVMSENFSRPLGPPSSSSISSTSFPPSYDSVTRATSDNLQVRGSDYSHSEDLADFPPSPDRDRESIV
T2 sequence (Q15858 whole entry): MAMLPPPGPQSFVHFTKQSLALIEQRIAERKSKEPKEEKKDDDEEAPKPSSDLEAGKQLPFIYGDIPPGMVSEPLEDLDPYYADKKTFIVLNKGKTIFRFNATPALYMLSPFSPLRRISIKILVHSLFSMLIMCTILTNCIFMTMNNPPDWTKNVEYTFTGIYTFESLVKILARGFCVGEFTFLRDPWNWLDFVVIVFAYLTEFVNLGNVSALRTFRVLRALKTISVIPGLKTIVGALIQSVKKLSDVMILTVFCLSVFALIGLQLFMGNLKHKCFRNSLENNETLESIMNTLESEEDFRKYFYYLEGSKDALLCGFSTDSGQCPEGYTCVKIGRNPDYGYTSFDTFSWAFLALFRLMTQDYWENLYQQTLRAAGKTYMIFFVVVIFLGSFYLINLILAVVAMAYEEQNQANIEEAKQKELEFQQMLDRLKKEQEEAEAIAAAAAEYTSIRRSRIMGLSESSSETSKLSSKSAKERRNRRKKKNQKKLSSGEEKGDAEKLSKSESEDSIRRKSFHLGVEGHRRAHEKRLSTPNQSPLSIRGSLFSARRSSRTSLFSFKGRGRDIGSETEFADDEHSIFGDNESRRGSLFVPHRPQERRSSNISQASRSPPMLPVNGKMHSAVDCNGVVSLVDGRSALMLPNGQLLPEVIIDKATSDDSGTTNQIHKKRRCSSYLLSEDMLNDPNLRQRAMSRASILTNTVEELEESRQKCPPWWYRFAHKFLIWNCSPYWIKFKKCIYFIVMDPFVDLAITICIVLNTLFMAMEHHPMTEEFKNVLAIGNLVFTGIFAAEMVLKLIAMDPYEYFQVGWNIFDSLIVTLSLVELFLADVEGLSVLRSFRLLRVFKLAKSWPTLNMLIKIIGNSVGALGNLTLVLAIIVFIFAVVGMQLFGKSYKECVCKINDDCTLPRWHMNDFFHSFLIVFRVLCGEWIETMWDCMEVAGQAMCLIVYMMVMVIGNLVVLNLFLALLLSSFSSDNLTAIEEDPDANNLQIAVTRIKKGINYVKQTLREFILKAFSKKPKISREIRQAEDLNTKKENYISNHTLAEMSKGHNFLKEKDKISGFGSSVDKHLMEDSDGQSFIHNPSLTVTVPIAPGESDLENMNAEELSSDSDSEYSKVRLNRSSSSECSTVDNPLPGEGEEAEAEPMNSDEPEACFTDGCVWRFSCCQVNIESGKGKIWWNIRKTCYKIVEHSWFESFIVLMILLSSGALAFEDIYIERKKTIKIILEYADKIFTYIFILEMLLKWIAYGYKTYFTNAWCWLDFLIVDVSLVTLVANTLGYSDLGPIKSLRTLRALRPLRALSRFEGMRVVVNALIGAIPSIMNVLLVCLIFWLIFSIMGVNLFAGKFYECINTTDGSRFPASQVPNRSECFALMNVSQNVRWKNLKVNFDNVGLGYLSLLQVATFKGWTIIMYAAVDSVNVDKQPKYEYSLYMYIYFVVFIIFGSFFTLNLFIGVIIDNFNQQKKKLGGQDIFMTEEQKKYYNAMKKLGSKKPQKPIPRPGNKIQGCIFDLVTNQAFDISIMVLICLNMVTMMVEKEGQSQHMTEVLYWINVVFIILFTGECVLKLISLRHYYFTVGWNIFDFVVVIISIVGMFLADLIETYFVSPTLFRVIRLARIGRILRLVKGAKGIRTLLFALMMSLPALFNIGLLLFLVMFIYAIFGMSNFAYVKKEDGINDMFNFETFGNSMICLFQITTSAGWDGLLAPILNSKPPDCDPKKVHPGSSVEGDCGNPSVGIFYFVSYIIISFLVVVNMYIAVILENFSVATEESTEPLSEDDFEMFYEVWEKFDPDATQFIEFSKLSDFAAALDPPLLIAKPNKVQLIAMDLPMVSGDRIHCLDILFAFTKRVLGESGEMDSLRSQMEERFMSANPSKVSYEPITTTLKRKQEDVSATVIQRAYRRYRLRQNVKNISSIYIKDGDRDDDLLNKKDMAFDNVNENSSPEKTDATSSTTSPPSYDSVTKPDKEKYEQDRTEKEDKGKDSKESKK

Turning to `C[C@H](c1cccc2cncn12)n1c(=O)oc2cc(S(=O)(=O)Nc3ncns3)c(F)cc21` [Compound 15-3, (R)-5-Fluoro-3-(1-(imidazo[1,5-a]pyridin-5-yl)ethyl)-2-oxo-N-(1,2,4-thiadiazol-5-yl)-2,3-dihydrobenzo[d]oxazole-6-sulfonamide], the “ratio of Nav 1.5:Nav 1.7 potency, determined by PatchXpress measurement” value (from here on “ratio of Nav 1.5:Nav 1.7 potency”) in assay [1] was 122. In addition, in assay [2] (setting [3]), the IC50 amounted to 134 nM.

Consider `C[C@@H](c1cccc2cncn12)n1c(=O)oc2cc(S(=O)(=O)Nc3ncns3)c(F)cc21` [Compound 15-4, 5-fluoro-3-[(1S)-1-imidazo[1,5-a]pyridin-5-ylethyl]-2-oxo-N-1,2,4-thiadiazol-5-yl-2,3-dihydro-1,3-benzoxazole-6-sulfonamide], for which the “ratio of Nav 1.5:Nav 1.7 potency” value in assay [1] is 60. In assay [2] (setting [3]), the IC50 is 235 nM.

As for `C[C@H](c1ccccc1I)n1c(=O)oc2cc(S(=O)(=O)Nc3ncns3)c(F)cc21` [Compound 16-3, (R)-5-Fluoro-3-(1-(2-iodophenyl)ethyl)-2-oxo-N-(1,2,4-thiadiazol-5-yl)-2,3-dihydrobenzo[d]oxazole-6-sulfonamide], the “ratio of Nav 1.5:Nav 1.7 potency” value in assay [1] is 272. In addition, in assay [2] (setting [3]), the IC50 was determined as 69 nM.

In the case of `C[C@H](c1ccccc1C1=CCNCC1)n1c(=O)oc2cc(S(=O)(=O)Nc3ncns3)c(F)cc21` [Compound 16-4, (R)-5-Fluoro-2-oxo-3-(1-(2-(1,2,3,6-tetrahydropyridin-4-yl)phenyl)ethyl)-N-(1,2,4-thiadiazol-5-yl)-2,3-dihydrobenzo[d]oxazole-6-sulfonamide], the “ratio of Nav 1.5:Nav 1.7 potency” value in assay [1] is reported as 296. For the same compound, the IC50 in assay [2] (potency for the Nav 1.7 sodium ion channel (as measured by PatchXpress)) was found to be 28 nM.

`C[C@H](c1ccccc1C1=CCCNC1)n1c(=O)oc2cc(S(=O)(=O)Nc3ncns3)c(F)cc21` [Compound 16-5, 5-fluoro-2-oxo-3-{(1R)-1-[2-(1,2,5,6-tetrahydropyridin-3-yl)phenyl]ethyl}-N-1,2,4-thiadiazol-5-yl-2,3-dihydro-1,3-benzoxazole-6-sulfonamide]: the “ratio of Nav 1.5:Nav 1.7 potency” value in assay [1] is given as 646. Further, the IC50 in assay [2] (setting [3]) worked out at 46 nM.

As for `C[C@H](c1ccccc1C1=CCNCCC1)n1c(=O)oc2cc(S(=O)(=O)Nc3ncns3)c(F)cc21` [Compound 16-6, 5-fluoro-2-oxo-3-{(1R)-1-[2-(2,5,6,7-tetrahydro-1H-azepin-4-yl)phenyl]ethyl}-N-1,2,4-thiadiazol-5-yl-2,3-dihydro-1,3-benzoxazole-6-sulfonamide], the “ratio of Nav 1.5:Nav 1.7 potency” value in assay [1] is on record as 1692. Also, the IC50 in assay [2] (setting [3]) amounted to 18 nM.

`C[C@H](c1ccccc1C#CC1(N)CC1)n1c(=O)oc2cc(S(=O)(=O)Nc3ncns3)c(F)cc21` [Compound 17-1, (R)-3-(1-(2-((1-aminocyclopropyl)ethynyl)phenyl)ethyl)-5-fluoro-2-oxo-N-(1,2,4-thiadiazol-5-yl)-2,3-dihydrobenzo[d]oxazole-6-sulfonamide]: the “ratio of Nav 1.5:Nav 1.7 potency” value in assay [1] is given as 313. Besides, the IC50 in assay [2] (setting [3]) was 96 nM.

In the case of `C[C@H](c1ccccc1C#CCN1CCOCC1)n1c(=O)oc2cc(S(=O)(=O)Nc3ncns3)c(F)cc21` [Compound 17-2, 5-fluoro-3-{(1R)-1-[2-(3-morpholin-4-ylprop-1-yn-1-yl)phenyl]ethyl}-2-oxo-N-1,2,4-thiadiazol-5-yl-2,3-dihydro-1,3-benzoxazole-6-sulfonamide], the “ratio of Nav 1.5:Nav 1.7 potency” value in assay [1] is reported as 90. The IC50 in assay [2] (setting [3]) was determined as 332 nM.

For `C[C@H](c1ccccc1C#CC1(O)CCCC1)n1c(=O)oc2cc(S(=O)(=O)Nc3ncns3)c(F)cc21` [Compound 17-3, 5-fluoro-3-[(1R)-1-{2-[(1-hydroxycyclopentyl)ethynyl]phenyl}ethyl]-2-oxo-N-1,2,4-thiadiazol-5-yl-2,3-dihydro-1,3-benzoxazole-6-sulfonamide], the “ratio of Nav 1.5:Nav 1.7 potency” value in assay [1] is given as 97. For the same compound, in assay [2] (setting [3]), the IC50 was 172 nM.

On to `C[C@H](c1ccccc1C#CCCO)n1c(=O)oc2cc(S(=O)(=O)Nc3ncns3)c(F)cc21` [Compound 17-4, 5-fluoro-3-{(1R)-1-[2-(4-hydroxybut-1-yn-1-yl)phenyl]ethyl}-2-oxo-N-1,2,4-thiadiazol-5-yl-2,3-dihydro-1,3-benzoxazole-6-sulfonamide], for which, in assay [1], the “ratio of Nav 1.5:Nav 1.7 potency” value was 360. In assay [2] (setting [3]), the IC50 is 147 nM.

With `C[C@H](c1ccccc1C#CCN1CCS(=O)(=O)CC1)n1c(=O)oc2cc(S(=O)(=O)Nc3ncns3)c(F)cc21` [Compound 17-5, 3-[(1R)-1-{2-[3-(1,1-dioxidothiomorpholin-4-yl)prop-1-yn-1-yl]phenyl}ethyl)-5-fluoro-2-oxo-N-1,2,4-thiadiazol-5-yl-2,3-dihydro-1,3-benzoxazole-6-sulfonamide], in assay [1], the “ratio of Nav 1.5:Nav 1.7 potency” value was 246. Besides, the IC50 in assay [2] (setting [3]) is 122 nM.

Turning to `CCC(O)(C#Cc1ccccc1[C@@H](C)n1c(=O)oc2cc(S(=O)(=O)Nc3ncns3)c(F)cc21)CC` [Compound 17-6, 3-{(1R)-1-[2-(3-ethyl-3-hydroxypent-1-yn-1-yl)phenyl]ethyl}-5-fluoro-2-oxo-N-1,2,4-thiadiazol-5-yl-2,3-dihydro-1,3-benzoxazole-6-sulfonamide], in assay [1], the “ratio of Nav 1.5:Nav 1.7 potency” value is 91. For the same compound, in assay [2] (setting [3]), the IC50 was 104 nM.

As to `C[C@H](c1ccccc1C#C[C@@H](C)O)n1c(=O)oc2cc(S(=O)(=O)Nc3ncns3)c(F)cc21` [Compound 17-7, 5-fluoro-3-[(1R)-1-{2-[(3R)-3-hydroxybut-1-yn-1-yl]phenyl}ethyl]-2-oxo-N-1,2,4-thiadiazol-5-yl-2,3-dihydro-1,3-benzoxazole-6-sulfonamide], the “ratio of Nav 1.5:Nav 1.7 potency” value in assay [1] is reported as 1257. Besides, the IC50 in assay [2] (setting [3]) came to 78 nM.

With `C[C@H](c1ccccc1C#Cc1cncn1C)n1c(=O)oc2cc(S(=O)(=O)Nc3ncns3)c(F)cc21` [Compound 17-8, 5-fluoro-3-[(1R)-1-{2-[(1-methyl-1H-imidazol-5-yl)ethynyl]phenyl}ethyl]-2-oxo-N-1,2,4-thiadiazol-5-yl-2,3-dihydro-1,3-benzoxazole-6-sulfonamide], the “ratio of Nav 1.5:Nav 1.7 potency” value in assay [1] is listed as 27. The IC50 in assay [2] (setting [3]) stood at 64 nM.

As to `C[C@H](c1ccccc1C#CCO)n1c(=O)oc2cc(S(=O)(=O)Nc3ncns3)c(F)cc21` [Compound 17-9, 5-fluoro-3-{(1R)-1-[2-(3-hydroxyprop-1-yn-1-yl)phenyl]ethyl}-2-oxo-N-1,2,4-thiadiazol-5-yl-2,3-dihydro-1,3-benzoxazole-6-sulfonamide], in assay [1], the “ratio of Nav 1.5:Nav 1.7 potency” value came to 45. Besides, the IC50 in assay [2] (setting [3]) turned out to be 58 nM.

As for `C[C@H](c1ccccc1C#CC(C)(C)N)n1c(=O)oc2cc(S(=O)(=O)Nc3ncns3)c(F)cc21` [Compound 17-10, 3-{(1R)-1-[2-(3-amino-3-methylbut-1-yn-1-yl)phenyl]ethyl}-5-fluoro-2-oxo-N-1,2,4-thiadiazol-5-yl-2,3-dihydro-1,3-benzoxazole-6-sulfonamide], in assay [1], the “ratio of Nav 1.5:Nav 1.7 potency” value was 534. For the same compound, the IC50 in assay [2] (setting [3]) is 56 nM.

As to `CNCC#Cc1ccccc1[C@@H](C)n1c(=O)oc2cc(S(=O)(=O)Nc3ncns3)c(F)cc21` [Compound 17-11, 5-fluoro-3-[(1R)-1-{2-[3-(methylamino)prop-1-yn-1-yl]phenyl}ethyl]-2-oxo-N-1,2,4-thiadiazol-5-yl-2,3-dihydro-1,3-benzoxazole-6-sulfonamide], in assay [1], the “ratio of Nav 1.5:Nav 1.7 potency” value came out at 589. In assay [2] (setting [3]), the IC50 worked out at 51 nM.

On to `C[C@H](O)C#Cc1ccccc1[C@@H](C)n1c(=O)oc2cc(S(=O)(=O)Nc3ncns3)c(F)cc21` [Compound 17-12, 5-fluoro-3-[(1R)-1-{2-[(3S)-3-hydroxybut-1-yn-1-yl]phenyl}ethyl]-2-oxo-N-1,2,4-thiadiazol-5-yl-2,3-dihydro-1,3-benzoxazole-6-sulfonamide], for which the “ratio of Nav 1.5:Nav 1.7 potency” value in assay [1] stood at 262. The IC50 in assay [2] (setting [3]) was 37 nM.

Turning to `C[C@H](c1ccccc1C#CCC1CCCN1)n1c(=O)oc2cc(S(=O)(=O)Nc3ncns3)c(F)cc21` (stereo partly drawn) [Compound 17-13, 5-fluoro-2-oxo-3-{(1R)-1-[2-(3-pyrrolidin-2-ylprop-1-yn-1-yl)phenyl]ethyl}-N-1,2,4-thiadiazol-5-yl-2,3-dihydro-1,3-benzoxazole-6-sulfonamide], the “ratio of Nav 1.5:Nav 1.7 potency” value in assay [1] was determined as 789. Moreover, the IC50 in assay [2] (setting [3]) was 34 nM.

With `C[C@H](c1ccccc1C#CC1CCNC1)n1c(=O)oc2cc(S(=O)(=O)Nc3ncns3)c(F)cc21` (stereo partly drawn) [Compound 17-14, 5-fluoro-2-oxo-3-{(1R)-1-[2-(pyrrolidin-3-ylethynyl)phenyl]ethyl}-N-1,2,4-thiadiazol-5-yl-2,3-dihydro-1,3-benzoxazole-6-sulfonamide], the “ratio of Nav 1.5:Nav 1.7 potency” value in assay [1] is reported as 1055. The IC50 in assay [2] (setting [3]) was 34 nM.

`C[C@H](c1ccccc1C#CCC(C)(C)N)n1c(=O)oc2cc(S(=O)(=O)Nc3ncns3)c(F)cc21` [Compound 17-15, 3-{(1R)-1-[2-(4-amino-4-methylpent-1-yn-1-yl)phenyl]ethyl}-5-fluoro-2-oxo-N-1,2,4-thiadiazol-5-yl-2,3-dihydro-1,3-benzoxazole-6-sulfonamide]: in assay [1], the “ratio of Nav 1.5:Nav 1.7 potency” value is reported as 1566. Besides, the IC50 in assay [2] (setting [3]) was 32 nM.

Turning to `C[C@H](c1ccccc1C#CC1CNC1)n1c(=O)oc2cc(S(=O)(=O)Nc3ncns3)c(F)cc21` [Compound 17-16, 3-{(1R)-1-[2-(azetidin-3-ylethynyl)phenyl]ethyl}-5-fluoro-2-oxo-N-1,2,4-thiadiazol-5-yl-2,3-dihydro-1,3-benzoxazole-6-sulfonamide], the “ratio of Nav 1.5:Nav 1.7 potency” value in assay [1] is given as 973. Besides, in assay [2] (setting [3]), the IC50 is 31 nM.
